The results in this text go back to the METLIN SMRT retention time set (Domingo-Almenara et al. 2019).

The data set in a line: gradient 5% acetonitrile 3 min, to 50% in 2 min, to 85% in 15 min, held 3 min, 100 µL/min. Particulars: column: Zorbax Extend-C18 2.1 x 50 mm; eluents: water / acetonitrile, 0.1% formic acid. The essentials:
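Standards, all pure, were combined into mixtures of ~100 molecules and run at 100 μL/min on a Zorbax Extend-C18 column (2.1 × 50 mm, 1.8 μm) with water and acetonitrile, each containing 0.1% formic acid. A coupled quadrupole time-of-flight mass spectrometer operated in positive and negative ionization mode. Retention time values come from computationally picked adduct peaks, each inspected manually.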
Turning to `COc1ccc(Cc2nc(-c3cccc(-c4ccn[nH]4)c3)no2)cc1OC`, the RP-LC retention time was found to be 830 s.
In the case of `CC1=C(C(=O)NC2CCN(Cc3ccccc3)CC2)C2(CCCCC2)OC1=O` it was 633 s; in that of `O=C(NCc1nnc2n1CCCC2)c1ccc2c(c1)OCO2`, 1260 s.
In turn, `CCOC(=O)N1CCN(Cc2nc(-c3ccc(N4CCC(C)CC4)nc3)no2)CC1` displayed an RP-LC retention time of 847 s.
`COc1cc2nc(N3CCCN(C)CC3)nc(NC3CCN(Cc4ccccc4)CC3)c2cc1OC` yielded an RP-LC retention time of 609 s.
As for `Cc1cc2[nH]c(C(=O)Nc3cc(F)c(F)cc3F)c(CN(C)C)c2s1`, the RP-LC retention time came to 664 s.
In the case of `CC(C)OC(=O)N1CCC(Oc2ncnc3c2cnn3-c2ccc(S(C)(=O)=O)cc2F)CC1` it was 1060 s; in that of `CCc1ccc(CNC(=O)C2CCN(C(=O)c3ncn4c3COC(c3ccc(F)cc3)C4)CC2)cc1` (centres undefined), 846 s.
In the case of `CCNC(=O)c1cc(-c2ccc(F)cc2)n(C)c1C` it was 820 s; in that of `CO[C@H]1C(=O)N(C2CCN(S(=O)(=O)c3cccs3)CC2)[C@H]1c1ccncc1`, 619 s; in that of `O=C(CCSCCc1ccccn1)Nc1c(F)cc(F)cc1Br`, 627 s.
With `COc1ccc(OC)c(-c2ccc(=O)n(CCc3nc(-c4ccc(C)cc4)no3)n2)c1`, the RP-LC retention time is 1020 s.
In the case of `CCN1C(=O)c2ccccc2Oc2ccc(C(=O)NCc3cccc(OC)c3)cc21` it was 921 s; in that of `COc1cccc(NC(=O)Cn2cnc3c(sc4nc(-c5ccccc5)ccc43)c2=O)c1`, 982 s.
In the case of `COc1cccc(CNC(=O)C2CCCN(c3cc(=O)n(C)c(=O)n3C)C2)c1` (centres undefined) it was 670 s; in that of `CCCN1CCCCc2cc(C(=O)NC(C)CC)sc21` (centres undefined), 1100 s; in that of `CCOC(=O)c1noc2nc(C)nc(NCC3CCN(Cc4ccc(F)cc4)CC3)c12`, 666 s.
Consider `O=C(N[C@H]1C[C@@H]2C[C@H]1CN2C(=O)Cc1c(F)cccc1Cl)c1cccs1`, for which the RP-LC retention time came to 710 s.
In the case of `COc1ccc(-c2nc(Cc3noc(-c4ccccc4)n3)c(C)o2)cc1` it was 1100 s; in that of `Cc1nnc(-c2ccc(S(=O)(=O)N3CCN(c4ccccn4)CC3)o2)o1`, 601 s; in that of `Cc1nnc(-c2c(S(=O)(=O)NC3CCCCC3)c(C)n(C)c2C)o1`, 814 s.
In the case of `COc1ccccc1N1CCN(CCN2C(=O)c3ccccc3C(C)(C)C2=O)CC1` it was 787 s; in that of `CCn1cnc(S(=O)(=O)N2CCC(C(=O)Nc3ccccc3OC)CC2)c1`, 666 s; in that of `Cc1ccc(-c2nc(CCN(C)C(=O)NCCc3ccccc3)no2)cc1`, 956 s.
In turn, `O=C(COc1ccccc1)N1CC(n2cnnc2C2CC2)C1` showed an RP-LC retention time of 620 s.
For the compound `Cc1ccc(C)c(-c2coc(-c3ccc(NC(=O)NCc4ccc(F)cc4)cc3)n2)c1`, the RP-LC retention time was found to be 1190 s.
In the case of `N#Cc1ccc(N2C=C(C(=O)N3CCOCC3)S(=O)(=O)c3ccc(F)cc32)cc1` it was 726 s; in that of `Cn1nc(C(=O)NCc2cccs2)ccc1=O`, 632 s.
For the compound `CCc1ccc(Nc2nc(C(=O)NC3CC3)nc3ccccc23)cc1`, the RP-LC retention time was found to be 791 s.
In the case of `CN1CC=C(c2noc(CCC(=O)N3CCC(c4ccccc4)C3)n2)CC1` (centres undefined), the RP-LC retention time amounted to 631 s.
In the case of `CCOC(=O)c1nc(Nc2ccc(OC)c(OC)c2)c2ccccc2n1` it was 736 s; in that of `Cc1ccc(CN2CC3(CCCCC3)CC2COc2ccncc2)nc1` (centres undefined), 615 s; in that of `Cc1cccn2c(Nc3ccccc3)c(-c3ccc(N4CCOCC4)cc3)nc12`, 684 s.
In the case of `CCN1CCN(CCNC(=O)c2cnc(-c3ccc(C)cc3)nc2-c2ccncc2)CC1`, the RP-LC retention time is 598 s.
In the case of `Cc1ccccc1S(=O)(=O)N1CCC2(CC1)CC(OCc1ccccc1)CCO2` (centres undefined) it was 1210 s.
In the case of `Cc1cc(C)n(-c2ccc(C(=O)N3CCN(c4ccccc4)CC3)cn2)n1` it was 949 s.
In the case of `O=C(c1cccnc1)N1CCC(n2nc(-c3ccsc3)ccc2=O)CC1` it was 650 s; in that of `O=C(NCc1cccc(C(F)(F)F)c1)c1cnc(-c2ccccc2)nc1-c1ccncc1`, 934 s.
Regarding `O=C(Cn1nc(C(=O)N2CCCC2)c2ccccc21)Nc1cccc(Cl)c1`, the RP-LC retention time worked out at 875 s.
In the case of `COc1ccc(C(=O)N2CCc3nc(CNC(=O)C4CCC4)n(C)c3C2)cn1` it was 585 s; in that of `CCC(C)NC(=O)c1c(C)oc2ccn(Cc3ccc(F)cc3)c(=O)c12` (centres undefined), 1040 s.
In the case of `Cc1ccc(CNC(=O)NCCC2CCN(S(=O)(=O)c3ccc(F)cc3)CC2)cc1` it was 896 s; in that of `COC(=O)c1cnc2nc(C)ccc2c1Nc1ccc(OC)cc1`, 647 s.
In the case of `COC(=O)c1ccc(C2CC(=O)NC3=C2C(=O)CC(C)(C)C3)cc1` (centres undefined) it was 675 s.
The compound `COc1ccc(-c2nc3cc(C)ccn3c2NC(=O)c2ccc(F)cc2)cc1OC` showed an RP-LC retention time of 597 s.
In the case of `CCOC(=O)c1ccc(NC(=O)c2ccc(S(=O)(=O)N(C)C)cc2)cc1` it was 833 s.
In the case of `Cc1nnc(N2CCCC(C(=O)NCCc3ccccc3)C2)c2nn(-c3ccc(Cl)cc3)c(C)c12` (centres undefined) it was 789 s.
In the case of `CCN(CC)c1ccc(NC(=O)c2nc3nc(C)cc(C(F)F)n3n2)cc1` it was 598 s; in that of `Cc1nn(Cc2ccc(C(=O)NCC3CC3)cc2)c(C)c1S(=O)(=O)N1CCCCC1`, 859 s.
Turning to `COc1cc(NC(=O)NCc2cccs2)ccc1N1CCCCC1=O`, the RP-LC retention time was determined as 645 s.
In the case of `COCCn1cc2c3c(cccc31)CN(C(=O)Nc1ccc(C)c(C)c1)CC2` it was 1020 s; in that of `CN1C(=O)c2cccnc2Sc2cc(NC(=O)c3ccc(C(F)(F)F)cc3)ccc21`, 910 s.
In the case of `CC(C)CCNC(=O)c1ccc(-c2nc3cccnc3n2C2CCCCC2)cc1` it was 1020 s; in that of `Cc1ccc(CN2CCC(CNC(=O)c3sc4ncccc4c3-n3cccc3)C2)cc1` (centres undefined), 707 s.
In the case of `O=C1CCC(C(=O)N2C[C@@H](COCC3CC3)[C@H](c3ccccn3)C2)=NN1` it was 583 s; in that of `O=P1(N(CCCl)CCCl)NCCCO1` (centres undefined), 724 s; in that of `CCn1cnc(S(=O)(=O)N2CCCC(C(=O)NCc3ccccc3)C2)c1` (centres undefined), 768 s.
Take `CCc1nc2cc(-c3noc(Cc4ccc(Cl)cc4)n3)ccc2o1`: the RP-LC retention time is 1140 s.
In the case of `CC(C)CCNC(=O)C1(C)Cn2nc(C(=O)NCCc3ccc(Cl)cc3)cc2C(=O)N1C` (centres undefined) it was 845 s.
